Series [1] in a line: Plasma concentration of rutin-MGO adducts in rats after oral rutin (HPLC-MS/MS, MRM). It is filed as in vivo, Sprague–Dawley rats. The protocol: (§1) The animals were treated as described in the study by Chen et al. ([22]). In brief, five 7 weeks old male Sprague–Dawley rats (190–220 g) were exposed to rutin (100 mg/kg BW) by oral gavage after fasting for 16 h. The plasma samples were collected at 0.25, 0.5, 1, 2, 4, 6, 8, 10, and 24 h after the administration, and stored under −80°C until analysis. The feces and urine were collected with the metabolic cages throughout the 24 h period. At 24 h, the rats were sacrificed after anesthetization, and the tissues including stomach, intestine (divided into duodenum, jejunum, ileum, caecum, and colon), heart, liver, kidney, and brain were taken and frozen immediately in liquid nitrogen and transferred to a deep freezer (−80°C) for storage before analysis. The procedures of the animal study followed the protocol by the Institutional Animal Care and Use Committee of the Laboratory Animal Center of Jinan University.
(§2) The plasma samples were treated as described by Chen et al. ([22]). About half gram of feces and tissue samples were weight accurately, and homogenized with 2 mL saline on an ice-bath. The homogenates were transferred to a centrifuge tube, added with 1 mL PBS (pH 5.0, 0.05 M) and 100 μL ascorbic acid (150 mg/mL), and extracted with 3 mL of methanol twice. The supernatants were combined after centrifugation at 13,000 × g under 4 °C for 10 min, evaporated to dryness, re-dissolved in 500 μL of 50% aqueous methanol containing 0.1% formic acid (v/v), and filtered through a 0.22 μm membrane for HPLC-MS/MS analysis. The adducts in 200 μL of urine were extracted twice with 1 mL methanol. The supernatants were collected after centrifugation at 13,000 × g under 4°C for 10 min, and evaporated to dryness. The residues were dissolved in 200 μL of 50% aqueous methanol containing 0.1% formic acid (v/v), and filtered through a 0.22 μm membrane for HPLC-MS/MS analysis. A sample of 1 μL was injected into an Agilent Technologies 1,260 Infinity HPLC (Agilent Technologies, CA, USA) interfaced to an AB 4500 Q-Trap mass spectrometer (AB Sciex, MA, USA) in the negative mode for quantification of adducts A and B, respectively. The eluting programs for HPLC analysis, and the operation conditions of mass spectrometer refers to those established by Chen et al. ([22]). […] Moreover, as the information on the occurrence levels of 6-(1,2-propanedione)-8-(1-acetol)-rutin, 6-(1-acetol)-8-(1,2-propanedione)-rutin, and 6-(1,2-propanedione)-8-(1,2-propanedione)-rutin discovered in the last study was still missing, the concentration of these oxidized rutin-MGO adducts in various tissues and urine and feces were also determined in this study. The qualification and quantification fragmentation transitions of these adducts refers to those provided previously ([22]).

A short description of series [2]: Rutin-MGO adducts in tissues, urine and feces of rats 24 h after oral rutin. It is filed as in vivo, Sprague–Dawley rats. The following applies: for Concentration in feces: feces collected within 24 h after rutin 100 mg/kg BW oral; for Concentration in urine: urine collected within 24 h after rutin 100 mg/kg BW oral. How it is done: as §1, §2
Series [3] relates to human gastric epithelial cell line (GES-1). Briefly: Cytotoxicity by MTT assay, GES-1. It is filed as cell-based. Conditions: 24 h.
The subject of series [4] is human colon carcinoma cell line (Caco-2). Briefly: Cytotoxicity by MTT assay, Caco-2. Type of series: cell-based. Conditions: Caco-2, 1 mM, 24 h. For orientation: Tetrazolium assays rely on reduction of a dye to a coloured formazan, in cell work by metabolically active cells.
Series [5] relates to human umbilical vein endothelial (HUVEC) cell. Briefly: Cytotoxicity by MTT assay, HUVEC. Type of series: cell-based. Conditions: 1 mM, 24 h.
The conditions of series [6]: rats, 15 min after administration of rutin; cited from earlier work.
The conditions of series [7]: cited from earlier work; for Elimination rate on MGO (MGO scavenged): incubated with MGO at 37°C for 24 h.
In the next series the test system is AGEs. Conditions: cited from earlier work.
Details of series [8]: method as in PMID 19916501. The following applies: anesthetized, mesenteric lymphatic/duodenum-cannulated rat model; cited from earlier work.
Setting [9] is: rutin 100 mg/kg BW oral gavage, time point 0.25 h.
Where [10] appears, read: rutin 100 mg/kg BW oral gavage, time point 1.00 h.
Where [11] appears, read: rutin 100 mg/kg BW oral gavage, time point 2.00 h.
[12] abbreviates: 24 h after rutin 100 mg/kg BW oral.

SMILES strings stand for the structures. Values joined by “and” are separate entries in the source; they are usually repeats but may differ in a detail not shown here. Identical values can stand only once.

Here are results for 13 compounds from PMC9378861, “Formation and metabolism of 6-(1-acetol)-8-(1-acetol)-rutin in foods and in vivo, and their cytotoxicity” (Frontiers in Nutrition, 2022).

Take `CC(=O)C(O)c1c(O)c(C(O)C(C)=O)c2oc(-c3ccc(O)c(O)c3)c(OC3OC(COC4OC(C)C(O)C(O)C4O)C(O)C(O)C3O)c(=O)c2c1O` (stereo not shown) [Adduct A, 6-(1-acetol)-8-(1-acetol)-rutin]: the concentration at 0.25 h in [1] (male, Sprague-Dawley, rat, plasma, oral, rutin 100 mg/kg BW oral gavage, time point 0.25 h) worked out at 9.4 ng/mL. Also, the Plasma concentration was 9.40 ± 6.37 ng/mL in series [1] (setting [9]); “trace” in [1] (setting [10]); “trace” in [1] (setting [11]); “trace” in series [1] (rutin 100 mg/kg BW oral gavage, time point 10.00 h). Also, the Concentration in kidney result in series [2] (setting [12]) is “trace”. The Concentration in feces result in [2] is “Trace”. In addition, the “Reduction of cell viability (cells dead)” value was found to be 27% in series [3] (GES-1, 1 mM); 19% in series [4]; 19% in [5].

For the compound `CC(=O)C(=O)c1c(O)c(C(O)C(C)=O)c2oc(-c3ccc(O)c(O)c3)c(OC3OC(COC4OC(C)C(O)C(O)C4O)C(O)C(O)C3O)c(=O)c2c1O` (stereo not shown) [6-(1,2-propanedione)-8-(1-acetol)-rutin], in [2] (setting [12]), the Concentration in brain was 0.11 ± 0.02 µg/kg, the Concentration in heart was found to be 0.09 ± 0.03 µg/kg, the Concentration in ileum entry was “trace” and the Concentration in kidney came out at 0.07 ± 0.01 µg/kg. Moreover, the Concentration in liver entry in series [2] (setting [12]) is on record as “trace”. In series [2], the Concentration in feces amounted to 1.54 ± 0.49 µg/kg and the Concentration in urine result was “trace”. Moreover, the “Plasma concentration of oxidized rutin-MGO adducts” value in series [6] was 2.38 ng/mL.

As for `O=C(O[C@@H]1Cc2c(O)cc(O)cc2O[C@@H]1c1cc(O)c(O)c(O)c1)c1cc(O)c(O)c(O)c1` [(–)-epigallocatechin gallate], the “Elimination rate on MGO (MGO scavenged)” value in series [7] is reported as 99%.

As for `CC(=O)C(O)c1c(O)c(C(O)C(C)=O)c2oc(-c3ccc(O)c(O)c3)c(OC3OC(COC4OC(C)C(O)C(O)C4O)C(O)C(O)C3O)c(=O)c2c1O` (stereo not shown) [Adduct B, 6-(1-acetol)-8-(1-acetol)-rutin], the Plasma concentration in series [1] (setting [9]) was 6.40 ng/mL and 6.40 ± 3.90 ng/mL; in series [1] (setting [10]), “trace”; in [1] (setting [11]) it was “trace”; in series [1] (rutin 100 mg/kg BW oral gavage, time point 8.00 h) it was “trace”; in [1] (rutin 100 mg/kg BW oral gavage, time point 24.00 h) it was “trace”. In addition, the Concentration in kidney entry in [2] (setting [12]) is reported as “trace”. The Concentration in feces result in [2] was “Trace”. The “Reduction of cell viability (cells dead)” value in [3] (GES-1, 1 mM) is 25%; in [4], 18%; in series [5], 16%.

In the case of `C[C@@H]1O[C@@H](OC[C@H]2O[C@@H](Oc3c(-c4ccc(O)c(O)c4)oc4cc(O)cc(O)c4c3=O)[C@H](O)[C@@H](O)[C@@H]2O)[C@H](O)[C@H](O)[C@H]1O` [rutin, quercetin-3-O-rutinoside], the “Reduction of cell viability (cells dead)” value in [3] (GES-1, 1 mM) is reported as 16%; in series [4] it was 15%; in series [5] it was 12%. Also, the MGO eliminated in series [7] (rutin 0.5 mM with MGO 0.5 mM, 37 °C, 24 h, simulated physiological condition) is 50%. Moreover, the “Inhibitory effect on the formation of AGEs in glycation reaction” value in the series with AGEs was “more than 90%”. Besides, the “Time at which plasma concentration reached maximum” value in series [8] was 60 min.

Take `COc1ccc([C@@H]2CC(=O)c3c(O)cc(O)cc3O2)cc1O` [hesperetin]: in [7], the “Elimination rate on MGO (MGO scavenged)” value is recorded as 63%.

Regarding `O=C(CCc1ccc(O)cc1)c1c(O)cc(O)cc1O` [phloretin], in series [7], the “Elimination rate on MGO (MGO scavenged)” value is listed as 99%.

Consider `Oc1cc(O)c2c(c1)O[C@H](c1ccc(O)c(O)c1)[C@H](O)C2` [epicatechin], for which the “Elimination rate on MGO (MGO scavenged)” value in [7] is given as 99%.

Regarding `O=c1cc(-c2ccc(O)cc2)oc2cc(O)cc(O)c12` [apigenin], the “Elimination rate on MGO (MGO scavenged)” value in series [7] is reported as 40%.

On to `CC(=O)C(O)c1c(O)c(C(O)C(C)=O)c2oc(-c3ccc(O)c(O)c3)c(O[C@@H]3O[C@H](CO[C@@H]4O[C@@H](C)[C@H](O)[C@@H](O)[C@H]4O)[C@@H](O)[C@H](O)[C@H]3O)c(=O)c2c1O` (stereo partly shown) [6-(1-acetol)-8-(1-acetol)-rutin], for which the “Total (maximum) level in plasma, sum of adducts A and B” value in series [1] (15 min after oral rutin 100 mg/kg BW) came out at 15.80 µg/L.

Consider `CC(=O)C(=O)c1c(O)c(C(O)C(C)=O)c(O)c2c(=O)c(O[C@@H]3O[C@H](CO[C@@H]4O[C@@H](C)[C@H](O)[C@@H](O)[C@H]4O)[C@@H](O)[C@H](O)[C@H]3O)c(-c3ccc(O)c(O)c3)oc12` (stereo partly shown) [6-(1-acetol)-8-(1,2-propanedione)-rutin], for which, in series [2] (setting [12]), the Concentration in brain is 0.45 ± 0.28 µg/kg, the Concentration in colon entry is “trace”, the Concentration in heart result is “trace” and the Concentration in ileum result is reported as “trace”. In series [2] (setting [12]), the Concentration in kidney came out at 0.12 ± 0.02 µg/kg, the Concentration in liver result is recorded as “trace” and the Concentration in stomach result was “trace”. Also, in series [2], the Concentration in feces was 2.23 ± 0.54 µg/kg; the Concentration in urine is 0.09 ng/mL and 0.09 ± 0.00 ng/mL. For the same compound, the “Plasma concentration of oxidized rutin-MGO adducts” value in series [6] is 1.61 ng/mL.

`CC(=O)C(=O)c1c(O)c(C(=O)C(C)=O)c2oc(-c3ccc(O)c(O)c3)c(O[C@@H]3O[C@H](CO[C@@H]4O[C@@H](C)[C@H](O)[C@@H](O)[C@H]4O)[C@@H](O)[C@H](O)[C@H]3O)c(=O)c2c1O` [6-(1,2-propanedione)-8-(1,2-propanedione)-rutin]: in [2] (setting [12]), the Concentration in brain worked out at 0.12 ± 0.02 µg/kg, the Concentration in caecum entry is recorded as “trace”, the Concentration in heart amounted to 0.14 ± 0.09 µg/kg and the Concentration in ileum entry is on record as “trace”. Besides, in [2] (setting [12]), the Concentration in kidney came to 0.16 ± 0.04 µg/kg; the Concentration in liver was 0.09 µg/kg and 0.09 ± 0.01 µg/kg; the Concentration in stomach is 0.10 µg/kg and 0.10 ± 0.01 µg/kg. For the same compound, in series [2], the Concentration in feces was found to be 0.26 ± 0.18 µg/kg; the Concentration in urine was 0.10 ng/mL and 0.10 ± 0.01 ng/mL. The “Content in feces, folds lower than 6-(1,2-propanedione)-8-(1-acetol)-rutin and 6-(1-acetol)-8-(1,2-propanedione)-rutin” value in [2] (feces within 24 h after rutin 100 mg/kg BW oral) was 6–9 folds. Also, the “Plasma concentration of oxidized rutin-MGO adducts” value in series [6] is 1.02 ng/mL.

As for `CC(=O)C=O` [MGO, Methylglyoxal], the “Growth of the cells inhibited” value is reported as “more than 50%” in series [3] (GES-1, 600 μM) and 18–19% in series [3] (GES-1, 200–400 μM). In [3] (GES-1, 1 mM), this compound registered a Cells left alive of 17%.
